Measured values from the NIST ThermoML archive (doi:10.1016/j.jct.2017.07.016).

Assay: xn = mol fraction of the nth substance listed
Conditions: 96.7 kPa, Liquid; for viscosity: Capillary tube (Ostwald / Ubbelohde) method; for mass density: Vibrating tube method

CCCCCCn1cc[n+](C)c1.[Cl-] [1-hexyl-3-methylimidazolium chloride] + CC(=O)N(C)C
Conditions | mass density [kg/m3] | viscosity [mPa·s]
303.15 K, x1 = 0.155 | 967.16 | 3.756
303.15 K, x1 = 0.301 | 989.75 | 14.88
303.15 K, x1 = 0.392 | 999.94 | 35.44
303.15 K, x1 = 0.503 | 1009.66 | 92.11
303.15 K, x1 = 0.63 | 1018.78 | 295.88
303.15 K, x1 = 0.794 | 1027.67 | 917.88
303.15 K, x1 = 0.887 | 1032.11 | 2891.3
303.15 K, x1 = 1 | 1036.07 | 5718.5
308.15 K, x1 = 0.155 | 962.92 | 3.352
308.15 K, x1 = 0.301 | 986.11 | 12.57
308.15 K, x1 = 0.392 | 996.46 | 28.6
308.15 K, x1 = 0.503 | 1006.34 | 70.17
308.15 K, x1 = 0.63 | 1015.69 | 212.96
308.15 K, x1 = 0.794 | 1024.64 | 624.84
308.15 K, x1 = 0.887 | 1029.11 | 1853.1
308.15 K, x1 = 1 | 1033.22 | 3430.8
313.15 K, x1 = 0.155 | 958.82 | 3.026
313.15 K, x1 = 0.301 | 982.47 | 10.74
313.15 K, x1 = 0.392 | 992.99 | 23.52
313.15 K, x1 = 0.503 | 1003.03 | 55.61
313.15 K, x1 = 0.63 | 1012.58 | 158.14
313.15 K, x1 = 0.794 | 1021.62 | 440.38
313.15 K, x1 = 0.887 | 1026.14 | 1212.9
313.15 K, x1 = 1 | 1030.38 | 2146.1
318.15 K, x1 = 0.155 | 954.87 | 2.739
318.15 K, x1 = 0.301 | 978.83 | 9.242
318.15 K, x1 = 0.392 | 989.54 | 19.54
318.15 K, x1 = 0.503 | 999.74 | 44.26
318.15 K, x1 = 0.63 | 1009.45 | 119.42
318.15 K, x1 = 0.794 | 1018.61 | 313.65
318.15 K, x1 = 0.887 | 1023.19 | 814.85
318.15 K, x1 = 1 | 1027.56 | 1390.4
323.15 K, x1 = 0.155 | 951 | 2.493
323.15 K, x1 = 0.301 | 975.21 | 8.018
323.15 K, x1 = 0.392 | 986.09 | 16.46
323.15 K, x1 = 0.503 | 996.46 | 35.84
323.15 K, x1 = 0.63 | 1006.33 | 91.95
323.15 K, x1 = 0.794 | 1015.58 | 229.39
323.15 K, x1 = 0.887 | 1020.2 | 563.41
323.15 K, x1 = 1 | 1024.75 | 928.1
328.15 K, x1 = 0.155 | 947.22 | 2.28
328.15 K, x1 = 0.301 | 971.59 | 7.038
328.15 K, x1 = 0.392 | 982.65 | 14
328.15 K, x1 = 0.503 | 993.19 | 29.41
328.15 K, x1 = 0.63 | 1003.22 | 71.92
328.15 K, x1 = 0.794 | 1012.63 | 171.63
328.15 K, x1 = 0.887 | 1017.33 | 400.32
328.15 K, x1 = 1 | 1021.92 | 638.79
333.15 K, x1 = 0.155 | 943.5 | 2.091
333.15 K, x1 = 0.301 | 967.98 | 6.213
333.15 K, x1 = 0.392 | 979.22 | 12.02
333.15 K, x1 = 0.503 | 989.93 | 24.45
333.15 K, x1 = 0.63 | 1000.11 | 57.41
333.15 K, x1 = 0.794 | 1009.73 | 130.32
333.15 K, x1 = 0.887 | 1014.53 | 291.17
333.15 K, x1 = 1 | 1019.13 | 453.59
338.15 K, x1 = 0.155 | 939.77 | 1.931
338.15 K, x1 = 0.301 | 964.37 | 5.522
338.15 K, x1 = 0.392 | 975.8 | 10.41
338.15 K, x1 = 0.503 | 986.68 | 20.82
338.15 K, x1 = 0.63 | 997.03 | 46.28
338.15 K, x1 = 0.794 | 1006.85 | 101.08
338.15 K, x1 = 0.887 | 1011.76 | 216.49
338.15 K, x1 = 1 | 1016.38 | 327.52
343.15 K, x1 = 0.155 | 935.94 | 1.786
343.15 K, x1 = 0.301 | 960.77 | 4.918
343.15 K, x1 = 0.392 | 972.39 | 9.14
343.15 K, x1 = 0.503 | 983.44 | 17.42
343.15 K, x1 = 0.63 | 993.95 | 37.9
343.15 K, x1 = 0.794 | 1003.99 | 79.83
343.15 K, x1 = 0.887 | 1009.01 | 163.62
343.15 K, x1 = 1 | 1013.65 | 243.04
348.15 K, x1 = 0.155 | 932.05 | 1.658
348.15 K, x1 = 0.301 | 957.18 | 4.443
348.15 K, x1 = 0.392 | 968.98 | 8.018
348.15 K, x1 = 0.503 | 980.22 | 14.93
348.15 K, x1 = 0.63 | 990.89 | 31.38
348.15 K, x1 = 0.794 | 1001.15 | 63.75
348.15 K, x1 = 0.887 | 1006.28 | 125.96
348.15 K, x1 = 1 | 1010.91 | 183.45
353.15 K, x1 = 0.155 | 928.09 | 1.542
353.15 K, x1 = 0.301 | 953.59 | 4.015
353.15 K, x1 = 0.392 | 965.58 | 7.115
353.15 K, x1 = 0.503 | 977 | 12.86
353.15 K, x1 = 0.63 | 987.84 | 26.46
353.15 K, x1 = 0.794 | 998.33 | 51.4
353.15 K, x1 = 0.887 | 1003.57 | 98.54
353.15 K, x1 = 1 | 1008.18 | 140.06
